These results are taken from patent publication US12662451B2, “Chemical compounds and uses thereof” (GLAXOSMITHKLINE INTELLECTUAL PROPERTY (NO.4) LIMITED, priority 2023, dated 2026).

Data set [1] in a line: Cell culture media unbound percentage and stability by rapid equilibrium dialysis (Example C). The format is in vitro ADME. Particulars: bovine, cell assay medium (RPMI-1640 with 10% fetal bovine serum), pH 7.4, rapid equilibrium dialysis, 4 hours at 37° C., read-out: Cell Culture Media Binding (% unbound). As to the method:
(§1) It was observed that the compounds of the present disclosure are bound to cell assay media to various degrees, which would affect the cellular potency analysis in Example B. To measure free drug potency, concentrations used in the cell assays were corrected with the measured free fraction determined in the cell assay media. Compounds were incubated in a rapid equilibrium dialysis (RED) at a nominal concentration of 1 μM, using a dialysis buffer of phosphate-buffered saline (PBS, 100 mM sodium phosphate+150 mM sodium chloride, pH 7.4). The test compound was spiked into the medium. Aliquots were added to the donor wells of a RED plate in triplicate, and blank PBS was added to each receiver well, at volumes recommended by the manufacturer. Plates were incubated with shaking at 200 rpm for 4 hours at 37° C. The resultant samples were analysed by LC-MS/MS using a specific and sensitive method. Results were reported as analyte:internal standard peak area ratios (PARs), and the percent unbound was calculated with the following equation:
[formula] where D=the matrix dilution factor (D=1 for media); Apparent Fu=Crec/Cdon; Crec=PAR in receiver samples; Cdon=PAR in donor samples. Percent stability was calculated by:
(§2) [formula] where Cfinal=PAR in the T=240 minute sample; Cinitial=PAR in the T=0 minute sample. Cell culture media unbound percentage and calculated free drug potency of selected compounds along with their measured potency from Example B are shown in Table 3.
Background: In equilibrium dialysis free small molecules cross a membrane that holds back macromolecules.

In data set [2] the test system is SW48 human colorectal cancer cells. As to the kind of experiment: Calculated free drug potency in SW48 cell assay, corrected with media free fraction (Example C). Particulars: for CC50: Homo sapiens, SW48, SW48 pCC50 corrected with measured free fraction in cell assay media. The format is cell-based. As to the method:
as §1, §2

For data set [3], the system named is SW48 human colorectal cancer cells (MSI-H cancer cells). As to the kind of experiment: SW48 cell viability, CellTiter-Glo, 120 hours (Example B). Particulars: for CC50: Homo sapiens. In general terms: In ATP-based viability assays light output follows the ATP content of the culture.
Description: SW48 human colorectal cancer cells (MSI-H cancer cells) were obtained from the American Type Culture Collection and maintained in growth medium composed of RPMI-1640 supplemented with 10% fetal bovine serum. Cells were maintained in a humidified 5% CO2 incubator at 37° C. Cell dissociation was conducted using TrypLE Select to detach cells from culture flasks. Following dissociation, cells were centrifuged briefly and resuspended in assay medium RPMI-1640+10% fetal bovine serum. Black 384-well assay plates were prepared from source plates of DMSO and compounds dissolved in DMSO prior to cell dispensation. These source plates were prepared in eleven point, 3-fold serial dilutions from 10 mM stocks stored at 4° C. Compounds and DMSO controls were dispensed into assay plates at 150 nanoliters per well from source plates using Labcyte Echo 555 or Echo 655T dispensers with Column 6 and Column 18 containing DMSO only. Cells were then seeded into prepared assay plates in 50 microliters assay medium at 250 cells per well into Columns 1 thru 17 and Columns 19-24. Assay medium without cells was added to column 18 to serve as a surrogate for 100% cell cytotoxicity. Following incubation for 120 hours in a humidified 5% CO2 incubator at 37° C., cellular ATP concentration of each well was measured and used as a surrogate of cell viability. This was performed by adding 50 microliters of CellTiter-Glo reagent to each well followed by a 10-minute incubation at room temperature. Luminescence was measured on a Synergy Neo or Synergy Neo2 multimode plate reader. Compound cytotoxic response (% C) was normalized to the robust means of column 6 (Control 1, 0% Cytotoxicity) and column 18 (Control 2, 100% Cytotoxicity) and normalized % cytotoxicity (% C) calculated. % C=100−100*((Compound−Control 2)/(Control1−Control2)). These normalized data were then used to determine a 50% cytotoxic response (CC50) using 4-parameter logistic curve model 201 in Activity Base XE:
[formula] • where A=minimum asymptote (% cytotoxicity), B=maximum asymptote (% cytotoxicity), C=Log CC50 (pCC50), D=Hill slope, and x=[inhibitor], (M).
The target in data set [4] is T1, recombinant full-length WRN protein (1-1432) (Homo sapiens, UniProt Q14191).
T1 construct: recombinant full-length WRN protein (1-1432)
As to the kind of experiment: WRN unwinding activity, fluorogenic 384-well assay (Example A). The format is biochemical. Particulars: WRN unwinding activity, 4 hr; Table 2; read-out: 4 hr UNW pIC50 (converted). In outline:
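Read-out is end-point unwinding of a fluorophore/quencher duplex (ex 525, em 598 nm) after 60 min with 200 μM ATP and 12 nM DNA (2× stocks), EDTA stop. Compound first sat 4 h with 200 pM WRN (2× stock) in pH 8.0 Tris buffer; four-parameter fit gives pIC50.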

The mark [5] stands for this setting: SW48, 120 h, read-out: SW48 pCC50, SW48 cell viability, 120 hours incubation (converted), Table 2.
The mark [6] stands for this setting: SW48, read-out: SW48 pCC50, measured potency from Example B, as repeated in Table 3 (converted).

SMILES strings stand for the structures. Structures can show the parent of a compound that is named as a salt. Where two headings read alike, the source gives them in different places.

T1 sequence (Q14191 whole entry): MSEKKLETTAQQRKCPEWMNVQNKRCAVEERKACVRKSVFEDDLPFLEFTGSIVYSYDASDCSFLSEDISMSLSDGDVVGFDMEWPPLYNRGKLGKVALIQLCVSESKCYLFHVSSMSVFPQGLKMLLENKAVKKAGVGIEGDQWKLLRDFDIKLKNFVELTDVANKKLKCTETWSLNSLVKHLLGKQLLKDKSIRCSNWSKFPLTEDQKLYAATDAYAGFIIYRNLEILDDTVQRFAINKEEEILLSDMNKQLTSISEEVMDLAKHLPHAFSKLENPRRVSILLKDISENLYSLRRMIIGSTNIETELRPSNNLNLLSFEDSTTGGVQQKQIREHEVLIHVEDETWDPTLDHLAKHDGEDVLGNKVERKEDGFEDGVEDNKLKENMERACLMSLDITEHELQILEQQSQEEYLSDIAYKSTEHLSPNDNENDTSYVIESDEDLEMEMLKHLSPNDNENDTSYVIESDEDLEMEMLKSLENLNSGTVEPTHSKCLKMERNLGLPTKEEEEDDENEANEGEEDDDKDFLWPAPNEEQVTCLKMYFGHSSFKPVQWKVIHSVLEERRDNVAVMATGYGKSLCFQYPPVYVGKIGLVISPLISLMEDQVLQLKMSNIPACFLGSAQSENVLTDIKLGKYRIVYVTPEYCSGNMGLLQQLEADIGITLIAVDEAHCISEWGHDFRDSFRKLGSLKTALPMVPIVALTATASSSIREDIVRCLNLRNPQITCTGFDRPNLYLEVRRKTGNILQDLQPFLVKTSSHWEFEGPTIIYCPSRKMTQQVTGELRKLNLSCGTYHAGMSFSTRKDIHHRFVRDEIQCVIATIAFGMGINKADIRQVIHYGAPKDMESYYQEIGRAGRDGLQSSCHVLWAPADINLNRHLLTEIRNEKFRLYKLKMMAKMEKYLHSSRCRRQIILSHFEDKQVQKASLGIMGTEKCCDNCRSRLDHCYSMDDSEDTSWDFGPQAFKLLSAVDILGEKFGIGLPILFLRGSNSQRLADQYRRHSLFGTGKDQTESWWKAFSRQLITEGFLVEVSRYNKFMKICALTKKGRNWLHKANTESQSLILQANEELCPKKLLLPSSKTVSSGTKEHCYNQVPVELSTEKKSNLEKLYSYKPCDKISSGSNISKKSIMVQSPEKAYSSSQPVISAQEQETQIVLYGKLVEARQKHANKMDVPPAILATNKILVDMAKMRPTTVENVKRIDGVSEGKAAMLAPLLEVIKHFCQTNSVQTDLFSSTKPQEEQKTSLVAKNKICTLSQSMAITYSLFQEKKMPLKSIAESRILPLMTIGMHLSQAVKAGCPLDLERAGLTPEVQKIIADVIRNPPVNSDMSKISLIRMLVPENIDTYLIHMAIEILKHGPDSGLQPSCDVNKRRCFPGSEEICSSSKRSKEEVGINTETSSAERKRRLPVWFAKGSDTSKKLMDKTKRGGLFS

For the compound `Cc1nc2cc(S(=O)(=O)N(C)c3ccc([C@@H]4C[C@H](N5CC6(F)CC5C6)C[C@H](C(=O)Nc5ccc(C(F)(F)F)cc5F)[C@H]4C(=O)O)cc3)ccc2n1C` (relative stereo) [Example 397, rel-(1R,2R,4R,6S)-2-((2-fluoro-4-(trifluoromethyl)phenyl)carbamoyl)-4-(4-fluoro-2-azabicyclo[2.1.1]hexan-2-yl)-6-(4-((N,1,2-trimethyl-1H-benzo[d]imidazole)-5-sulfonamido)phenyl)cyclohexane-1-carboxylic acid], in data set [1], the fraction unbound at 4 h, 1 µM was found to be 0.0527. The results for the CC50 in data set [2], in data set [3] (setting [5]) and in data set [3] (setting [6]) were 16.6 nM, 316 nM and 316 nM, respectively. The IC50 in data set [4] was 1.58 nM.

For `Cc1nc2cc(S(=O)(=O)N(C)c3ccc([C@H]4C[C@H](N5CC6(F)CC5C6)C[C@@H](C(=O)Nc5ccc(C(F)(F)F)cc5F)[C@@H]4C(=O)O)cc3)ccc2n1C` (relative stereo) [Example 400, rel-(1R,2R,4S,6S)-2-((2-fluoro-4-(trifluoromethyl)phenyl)carbamoyl)-4-(4-fluoro-2-azabicyclo[2.1.1]hexan-2-yl)-6-(4-((N,1,2-trimethyl-1H-benzo[d]imidazole)-5-sulfonamido)phenyl)cyclohexane-1-carboxylic acid], the fraction unbound at 4 h, 1 µM in data set [1] was 0.049. The CC50 was 389 nM in data set [2], 7940 nM in data set [3] (setting [5]) and 7940 nM in data set [3] (setting [6]). The IC50 in data set [4] was 20 nM.

Turning to `CN(c1ccc([C@H]2CCC[C@@H](C(=O)Nc3ccc(C(F)(F)F)cc3F)[C@@H]2C(=O)O)cc1)S(=O)(=O)c1ccc2c(c1)ncn2C` (single isomer, unassigned) [Example 88], the fraction unbound at 4 h, 1 µM in data set [1] is 0.0297. For the same compound, the CC50 was 11.7 nM in data set [2], 398 nM in data set [3] (setting [5]) and 398 nM in data set [3] (setting [6]). The IC50 in data set [4] was 2.51 nM.

Turning to `CC(=O)N1CCc2cc(S(=O)(=O)N(C)c3ccc([C@H]4CCC[C@@H](C(=O)Nc5ccc(C(F)(F)F)cc5F)[C@@H]4C(=O)O)cc3)ccc21` (single isomer, unassigned) [Example 90], in data set [1], the fraction unbound at 4 h, 1 µM is 0.0553. For the same compound, the CC50 in data set [2] is 69.2 nM; in data set [3] (setting [5]), 1260 nM; in data set [3] (setting [6]), 1260 nM. In addition, the IC50 in data set [4] is 3.98 nM.

On to `Cc1nc2cc(S(=O)(=O)N(C)c3ccc([C@H]4C[C@@H]5OCC[C@@H]5[C@@H](C(=O)Nc5ccc(C(F)(F)F)cc5F)[C@@H]4C(=O)O)cc3)ccc2n1C` (single isomer, unassigned) [Example 157], for which, in data set [1], the fraction unbound at 4 h, 1 µM amounted to 0.242. In addition, the “Free Drug SW48 pCC50” value in data set [2] (SW48 pCC50 corrected with measured free fraction in cell assay media) was 7.50. For the same compound, the “SW48 pCC50” value in data set [3] (SW48 cell viability, 120 hours incubation, Table 2) is recorded as 6.9; in data set [3] (measured potency from Example B, as repeated in Table 3), 6.9. For the same compound, the IC50 in data set [4] is 2.51 nM.

As for `Cc1nc2cc(S(=O)(=O)N(C)c3ccc([C@@H]4CCC[C@H](C(=O)Nc5c(F)cc(C(C)C)cc5F)[C@H]4C(=O)O)cc3)ccc2n1C` (single isomer, unassigned) [Example 171], in data set [1], the fraction unbound at 4 h, 1 µM turned out to be 0.0634. Besides, the values for the CC50 in data set [2], in data set [3] (setting [5]) and in data set [3] (setting [6]) were 50.1 nM, 794 nM and 794 nM, respectively. The IC50 in data set [4] was 3.16 nM.

Turning to `CCO[C@@H]1C[C@H](c2ccc(N(C)S(=O)(=O)c3ccc4c(c3)nc(C)n4C)cc2)[C@@H](C(=O)O)[C@H](C(=O)Nc2ccc(C(F)(F)F)cn2)C1` (single isomer, unassigned) [Example 199], in data set [1], the fraction unbound at 4 h, 1 µM is 0.16. Further, the CC50 in data set [2] was 79.4 nM; in data set [3] (setting [5]), 501 nM; in data set [3] (setting [6]), 501 nM. For the same compound, in data set [4], the IC50 was 2.51 nM.

In the case of `Cc1nc2cc(S(=O)(=O)N(C)c3ccc([C@@H]4CCC[C@H](COc5ccc(C(F)(F)F)cc5)[C@H]4C(=O)O)cc3)cc([C@@H]3CCCN(C)C3)c2n1C` (single isomer, unassigned) [Example 211, formic acid salt], in data set [1], the fraction unbound at 4 h, 1 µM amounted to 0.0208. Besides, the figures for the CC50 in data set [2], in data set [3] (setting [5]) and in data set [3] (setting [6]) were 66.1 nM, 3160 nM and 3160 nM, respectively. Further, in data set [4], the IC50 is 2 nM.

`Cc1nc2cc(S(=O)(=O)N(C)c3ccc([C@@H]4CCC[C@H](COc5ccc(C(F)(F)F)cc5)[C@H]4C(=O)O)cc3)cc([C@H]3CCCN(C)C3)c2n1C` (single isomer, unassigned) [Example 212]: the fraction unbound at 4 h, 1 µM in data set [1] came out at 0.0205. The CC50 was 40.7 nM in data set [2], 2000 nM in data set [3] (setting [5]) and 2000 nM in data set [3] (setting [6]). Also, the IC50 in data set [4] is 1.58 nM.

As to `CCO[C@H]1C[C@@H](COc2ccc(C(F)(F)F)cc2)[C@H](C(=O)O)[C@@H](c2ccc(N(C)S(=O)(=O)c3ccc4c(c3)nc(C)n4C)cc2)C1` (single isomer, unassigned) [Example 221], the fraction unbound at 4 h, 1 µM in data set [1] came out at 0.0411. Also, the CC50 is 81.3 nM in data set [2], 2000 nM in data set [3] (setting [5]) and 2000 nM in data set [3] (setting [6]). The IC50 in data set [4] was 3.98 nM.

With `Cc1nc2cc(S(=O)(=O)Nc3ccc([C@@H]4CCC[C@H](C(=O)Nc5ccc(C(F)(F)F)cc5F)[C@H]4C(=O)O)cc3)ccc2n1C` (single isomer, unassigned) [Example 224], the fraction unbound at 4 h, 1 µM in data set [1] was 0.0355. Besides, the results for the CC50 in data set [2], in data set [3] (setting [5]) and in data set [3] (setting [6]) were 17.8 nM, 501 nM and 501 nM, respectively. Moreover, the IC50 in data set [4] was 1.26 nM.

Take `Cc1nnc(-c2cc([C@@H]3CCC[C@H](C(=O)Nc4ccc(C(F)(F)F)cc4F)[C@H]3C(=O)O)ccc2C(F)(F)F)o1` (single isomer, unassigned) [Example 245]: in data set [1], the fraction unbound at 4 h, 1 µM turned out to be 0.0971. Also, the values for the CC50 in data set [2], in data set [3] (setting [5]) and in data set [3] (setting [6]) were 776 nM, 7940 nM and 7940 nM, respectively. Besides, the IC50 in data set [4] is 7.94 nM.

In the case of `CN[C@H]1C[C@H](c2ccc(N(C)S(=O)(=O)c3ccc4c(c3)nc(C)n4C)cc2)[C@@H](C(=O)O)[C@H](C(=O)Nc2ccc(C(F)(F)F)cc2F)C1` (single isomer, unassigned) [Example 254], the fraction unbound at 4 h, 1 µM in data set [1] worked out at 0.234. Moreover, the CC50 is 2340 nM in data set [2] and 10000 nM in data set [3] (setting [5]). For the same compound, the IC50 in data set [4] is 25.1 nM.

In the case of `CN[C@H]1C[C@H](C(=O)Nc2ccc(C(F)(F)F)cc2F)[C@@H](C(=O)O)[C@H](c2ccc(N(C)S(=O)(=O)c3ccc4c(c3)nc(C)n4C)cc2)C1` (single isomer, unassigned) [Example 255], the fraction unbound at 4 h, 1 µM in data set [1] was found to be 0.439. Also, the CC50 in data set [2] was 3470 nM; in data set [3] (setting [5]), 7940 nM; in data set [3] (setting [6]), 7940 nM. The IC50 in data set [4] is 158 nM.

Consider `CN[C@@H]1C[C@H](c2ccc(N(C)S(=O)(=O)c3ccc4c(c3)nc(C)n4C)cc2)[C@@H](C(=O)O)[C@H](C(=O)Nc2ccc(C(F)(F)F)cc2F)C1` (single isomer, unassigned) [Example 256], for which the fraction unbound at 4 h, 1 µM in data set [1] is 0.284. Moreover, the figures for the CC50 in data set [2], in data set [3] (setting [5]) and in data set [3] (setting [6]) were 1780 nM, 6310 nM and 6310 nM, respectively. Besides, the IC50 in data set [4] is 1.26 nM.

With `Cc1nc2cc(S(=O)(=O)N(C)c3ccc([C@H]4C[C@@H](C#N)C[C@@H](C(=O)Nc5ccc(C(F)(F)F)cc5F)[C@@H]4C(=O)O)cc3)ccc2n1C` (single isomer, unassigned) [Example 287], the fraction unbound at 4 h, 1 µM in data set [1] is 0.156. Further, the CC50 in data set [2] is 61.7 nM; in data set [3] (setting [5]) it was 398 nM; in data set [3] (setting [6]), 398 nM. Moreover, the IC50 in data set [4] was 1.58 nM.
